Earlier results on 1 compound are cited in patent US11678683B2, “Processed edible product comprising a polyelectrolyte complex and an antimicrobial compound” (Ceradis B.V., priority 2013, dated 2023).

The conditions of data set [1]: neutral aqueous systems.

As for `C[C@@H]1C/C=C/C=C/C=C/C=C/[C@H](O[C@@H]2O[C@H](C)[C@@H](O)[C@H](N)[C@@H]2O)C[C@@H]2O[C@](O)(C[C@@H](O)C[C@H]3O[C@@H]3/C=C/C(=O)O1)C[C@H](O)[C@H]2C(=O)O` [Natamycin, natamycin], the “MIC (Minimal Inhibitory Concentration)” value in the data set with most fungi is reported as “less than 10 ppm”. Also, the Solubility in data set [1] was 30-40 ppm.
